Assay results: article PMC6437697 (Journal of Medicinal Chemistry, 2019)

Legend:
Experiment in all cases: KINOMEscan
Type in all cases: binding
Conditions in all cases: read-out: % control activity remaining
[1] = molecular target: T1, GRK4 (Homo sapiens, UniProt P32298)
T1 construct: purchased Eurofins DiscoverX KINOMEscan

[2] = molecular target: T2, EPHA3 (Homo sapiens, UniProt P29320)
T2 construct: purchased Eurofins DiscoverX KINOMEscan
T2 sequence (P29320 21-983): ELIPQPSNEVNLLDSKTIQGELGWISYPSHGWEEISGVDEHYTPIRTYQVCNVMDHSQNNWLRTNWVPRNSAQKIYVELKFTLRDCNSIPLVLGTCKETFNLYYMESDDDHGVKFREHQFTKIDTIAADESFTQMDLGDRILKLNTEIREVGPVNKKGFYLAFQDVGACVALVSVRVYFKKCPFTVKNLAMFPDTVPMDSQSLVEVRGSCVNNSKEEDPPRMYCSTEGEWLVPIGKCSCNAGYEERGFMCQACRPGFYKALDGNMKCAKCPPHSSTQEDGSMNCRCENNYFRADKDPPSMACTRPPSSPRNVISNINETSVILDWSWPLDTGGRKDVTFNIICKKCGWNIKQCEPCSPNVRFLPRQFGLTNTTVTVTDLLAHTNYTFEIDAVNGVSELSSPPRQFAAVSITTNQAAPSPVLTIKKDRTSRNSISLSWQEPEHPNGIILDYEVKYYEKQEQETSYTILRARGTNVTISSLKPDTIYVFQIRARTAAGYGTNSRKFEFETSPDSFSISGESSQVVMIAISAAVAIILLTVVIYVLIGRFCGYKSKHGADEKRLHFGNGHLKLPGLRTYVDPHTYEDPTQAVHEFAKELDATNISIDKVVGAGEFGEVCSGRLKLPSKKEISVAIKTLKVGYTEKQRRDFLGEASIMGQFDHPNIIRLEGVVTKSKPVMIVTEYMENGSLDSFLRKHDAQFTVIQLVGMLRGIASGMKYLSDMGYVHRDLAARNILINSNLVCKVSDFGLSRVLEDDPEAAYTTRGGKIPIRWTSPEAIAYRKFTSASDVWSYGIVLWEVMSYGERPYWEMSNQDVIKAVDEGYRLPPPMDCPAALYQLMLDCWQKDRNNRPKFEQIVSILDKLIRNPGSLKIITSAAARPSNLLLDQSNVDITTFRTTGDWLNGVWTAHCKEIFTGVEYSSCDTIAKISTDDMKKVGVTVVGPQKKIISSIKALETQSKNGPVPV

[3] = molecular target: T3, SYK (Homo sapiens, UniProt P43405)
T3 construct: purchased Eurofins DiscoverX KINOMEscan

[4] = molecular target: T4, SGK3 (Homo sapiens, UniProt Q96BR1)
T4 construct: purchased Eurofins DiscoverX KINOMEscan
T4 sequence (Q96BR1 1-496): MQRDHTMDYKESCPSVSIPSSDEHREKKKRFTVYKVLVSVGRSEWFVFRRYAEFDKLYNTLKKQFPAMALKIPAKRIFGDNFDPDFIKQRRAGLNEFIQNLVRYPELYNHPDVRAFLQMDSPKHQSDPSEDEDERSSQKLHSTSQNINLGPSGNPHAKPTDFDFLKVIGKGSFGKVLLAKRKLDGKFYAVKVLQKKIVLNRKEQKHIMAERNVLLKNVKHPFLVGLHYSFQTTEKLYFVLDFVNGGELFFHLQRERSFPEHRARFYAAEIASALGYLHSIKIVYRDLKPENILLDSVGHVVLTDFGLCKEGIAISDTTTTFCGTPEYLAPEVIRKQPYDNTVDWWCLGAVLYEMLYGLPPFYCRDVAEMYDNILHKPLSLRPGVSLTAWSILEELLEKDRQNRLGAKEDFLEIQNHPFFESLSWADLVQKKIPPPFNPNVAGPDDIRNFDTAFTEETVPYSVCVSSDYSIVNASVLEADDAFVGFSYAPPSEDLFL

[5] = molecular target: T5, PKN1 (Homo sapiens, UniProt Q16512)
T5 construct: purchased Eurofins DiscoverX KINOMEscan

[6] = molecular target: T6, SLK (Homo sapiens, UniProt Q9H2G2)
T6 construct: purchased Eurofins DiscoverX KINOMEscan

[7] = molecular target: T7, p38-beta (Homo sapiens, UniProt Q15759)
T7 construct: purchased Eurofins DiscoverX KINOMEscan

[8] = molecular target: T8, LIMK1 (Homo sapiens, UniProt P53667)
T8 construct: purchased Eurofins DiscoverX KINOMEscan
T8 sequence (P53667 whole entry): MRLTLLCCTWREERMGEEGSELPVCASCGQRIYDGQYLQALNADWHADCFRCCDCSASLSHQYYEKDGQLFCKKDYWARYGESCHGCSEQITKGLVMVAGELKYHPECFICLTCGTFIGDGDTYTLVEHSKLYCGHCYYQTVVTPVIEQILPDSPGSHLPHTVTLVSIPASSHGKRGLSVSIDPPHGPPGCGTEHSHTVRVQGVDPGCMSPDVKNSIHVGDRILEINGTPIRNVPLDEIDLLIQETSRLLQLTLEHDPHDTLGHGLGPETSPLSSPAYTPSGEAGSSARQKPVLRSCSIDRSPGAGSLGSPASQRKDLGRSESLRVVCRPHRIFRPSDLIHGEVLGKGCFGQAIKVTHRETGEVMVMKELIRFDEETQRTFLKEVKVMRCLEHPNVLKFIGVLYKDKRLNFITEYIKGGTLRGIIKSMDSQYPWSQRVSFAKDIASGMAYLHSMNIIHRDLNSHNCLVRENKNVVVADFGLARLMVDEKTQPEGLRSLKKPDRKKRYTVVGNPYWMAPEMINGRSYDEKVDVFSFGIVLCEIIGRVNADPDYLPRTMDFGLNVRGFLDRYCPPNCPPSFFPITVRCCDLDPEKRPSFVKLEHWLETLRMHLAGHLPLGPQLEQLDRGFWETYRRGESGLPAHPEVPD

[9] = molecular target: T9, TRKC (Homo sapiens, UniProt Q16288)
T9 construct: purchased Eurofins DiscoverX KINOMEscan
T9 sequence (Q16288 32-839): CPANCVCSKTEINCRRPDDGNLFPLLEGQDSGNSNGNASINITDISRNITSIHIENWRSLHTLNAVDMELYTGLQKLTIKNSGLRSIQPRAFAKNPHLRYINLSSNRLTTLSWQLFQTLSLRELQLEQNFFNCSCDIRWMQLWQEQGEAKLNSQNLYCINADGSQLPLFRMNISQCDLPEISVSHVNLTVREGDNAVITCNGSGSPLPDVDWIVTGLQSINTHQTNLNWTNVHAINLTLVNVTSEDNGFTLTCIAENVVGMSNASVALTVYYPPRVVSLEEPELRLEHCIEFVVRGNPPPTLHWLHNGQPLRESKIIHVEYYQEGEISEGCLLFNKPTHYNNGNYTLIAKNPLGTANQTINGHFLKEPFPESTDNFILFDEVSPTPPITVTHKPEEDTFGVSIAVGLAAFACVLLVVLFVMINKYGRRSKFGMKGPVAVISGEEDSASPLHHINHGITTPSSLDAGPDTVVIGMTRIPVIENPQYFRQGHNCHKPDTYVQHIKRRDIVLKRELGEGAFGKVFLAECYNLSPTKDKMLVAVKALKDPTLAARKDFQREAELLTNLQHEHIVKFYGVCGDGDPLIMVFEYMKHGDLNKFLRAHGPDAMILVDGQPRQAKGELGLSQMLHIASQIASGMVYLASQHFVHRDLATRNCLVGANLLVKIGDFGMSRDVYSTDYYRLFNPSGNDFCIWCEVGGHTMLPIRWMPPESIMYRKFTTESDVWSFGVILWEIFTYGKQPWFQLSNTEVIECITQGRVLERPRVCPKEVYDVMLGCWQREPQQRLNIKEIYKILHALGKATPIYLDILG

[10] = molecular target: T10, ABL2 (Homo sapiens, UniProt P42684)
T10 construct: purchased Eurofins DiscoverX KINOMEscan
T10 sequence (P42684 whole entry): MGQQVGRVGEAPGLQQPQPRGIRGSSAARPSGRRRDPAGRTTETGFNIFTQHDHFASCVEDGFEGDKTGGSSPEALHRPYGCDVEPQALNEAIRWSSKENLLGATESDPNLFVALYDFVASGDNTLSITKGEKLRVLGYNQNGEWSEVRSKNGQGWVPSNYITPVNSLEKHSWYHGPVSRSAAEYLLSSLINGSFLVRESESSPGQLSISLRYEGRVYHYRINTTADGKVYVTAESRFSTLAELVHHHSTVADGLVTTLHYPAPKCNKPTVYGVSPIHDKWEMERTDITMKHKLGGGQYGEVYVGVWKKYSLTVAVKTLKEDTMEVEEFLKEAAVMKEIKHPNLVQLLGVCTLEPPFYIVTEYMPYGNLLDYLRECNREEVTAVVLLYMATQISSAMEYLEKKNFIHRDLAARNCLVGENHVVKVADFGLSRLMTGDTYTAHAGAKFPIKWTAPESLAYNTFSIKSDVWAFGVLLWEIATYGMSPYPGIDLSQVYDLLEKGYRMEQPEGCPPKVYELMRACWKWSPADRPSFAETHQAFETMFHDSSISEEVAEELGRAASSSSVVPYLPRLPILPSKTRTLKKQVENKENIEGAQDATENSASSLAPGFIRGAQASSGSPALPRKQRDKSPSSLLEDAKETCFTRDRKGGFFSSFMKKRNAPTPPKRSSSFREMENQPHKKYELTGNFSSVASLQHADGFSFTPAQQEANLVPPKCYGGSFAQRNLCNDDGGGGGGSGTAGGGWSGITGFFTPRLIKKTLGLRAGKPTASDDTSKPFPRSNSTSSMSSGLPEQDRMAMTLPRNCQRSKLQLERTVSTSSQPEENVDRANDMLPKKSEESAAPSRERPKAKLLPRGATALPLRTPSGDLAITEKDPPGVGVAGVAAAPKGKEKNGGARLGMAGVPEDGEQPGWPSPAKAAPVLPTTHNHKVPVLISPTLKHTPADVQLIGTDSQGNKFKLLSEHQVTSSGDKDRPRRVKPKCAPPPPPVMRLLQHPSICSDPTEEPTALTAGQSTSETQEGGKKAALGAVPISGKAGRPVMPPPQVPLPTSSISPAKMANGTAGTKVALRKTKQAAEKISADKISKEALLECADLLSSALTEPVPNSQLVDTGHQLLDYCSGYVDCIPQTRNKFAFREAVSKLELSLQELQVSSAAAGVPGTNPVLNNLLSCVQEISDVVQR

[11] = molecular target: T11, PRKCQ (Homo sapiens, UniProt Q04759)
T11 construct: purchased Eurofins DiscoverX KINOMEscan
T11 sequence (Q04759 whole entry): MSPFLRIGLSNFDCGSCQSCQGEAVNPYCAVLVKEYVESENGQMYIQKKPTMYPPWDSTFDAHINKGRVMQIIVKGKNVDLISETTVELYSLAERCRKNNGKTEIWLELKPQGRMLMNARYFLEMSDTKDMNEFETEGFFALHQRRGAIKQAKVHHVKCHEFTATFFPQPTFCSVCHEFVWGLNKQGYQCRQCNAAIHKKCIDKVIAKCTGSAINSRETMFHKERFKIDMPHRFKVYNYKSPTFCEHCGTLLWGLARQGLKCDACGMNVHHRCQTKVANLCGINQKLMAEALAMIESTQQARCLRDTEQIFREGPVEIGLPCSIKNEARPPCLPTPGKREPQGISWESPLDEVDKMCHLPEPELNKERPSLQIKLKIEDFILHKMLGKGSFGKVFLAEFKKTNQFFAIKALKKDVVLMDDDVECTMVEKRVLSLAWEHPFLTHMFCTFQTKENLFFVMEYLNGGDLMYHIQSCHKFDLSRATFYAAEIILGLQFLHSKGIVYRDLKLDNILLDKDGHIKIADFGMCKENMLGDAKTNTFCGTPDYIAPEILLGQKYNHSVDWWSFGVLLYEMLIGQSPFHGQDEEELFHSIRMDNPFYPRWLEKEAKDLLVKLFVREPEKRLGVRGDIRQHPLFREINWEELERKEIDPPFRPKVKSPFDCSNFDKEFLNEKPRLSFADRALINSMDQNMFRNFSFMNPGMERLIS

[12] = molecular target: T12, ABL1(F317L)-phosphorylated (Homo sapiens, UniProt P00519, F317L)
T12 construct: purchased Eurofins DiscoverX KINOMEscan

[13] = molecular target: T13, PKAC-alpha (Homo sapiens, UniProt P17612)
T13 construct: purchased Eurofins DiscoverX KINOMEscan

[14] = molecular target: T14, PIK3CA(E545K) (Homo sapiens, UniProt P42336, E545K)
T14 construct: purchased Eurofins DiscoverX KINOMEscan
T14 sequence (P42336 whole entry E545K): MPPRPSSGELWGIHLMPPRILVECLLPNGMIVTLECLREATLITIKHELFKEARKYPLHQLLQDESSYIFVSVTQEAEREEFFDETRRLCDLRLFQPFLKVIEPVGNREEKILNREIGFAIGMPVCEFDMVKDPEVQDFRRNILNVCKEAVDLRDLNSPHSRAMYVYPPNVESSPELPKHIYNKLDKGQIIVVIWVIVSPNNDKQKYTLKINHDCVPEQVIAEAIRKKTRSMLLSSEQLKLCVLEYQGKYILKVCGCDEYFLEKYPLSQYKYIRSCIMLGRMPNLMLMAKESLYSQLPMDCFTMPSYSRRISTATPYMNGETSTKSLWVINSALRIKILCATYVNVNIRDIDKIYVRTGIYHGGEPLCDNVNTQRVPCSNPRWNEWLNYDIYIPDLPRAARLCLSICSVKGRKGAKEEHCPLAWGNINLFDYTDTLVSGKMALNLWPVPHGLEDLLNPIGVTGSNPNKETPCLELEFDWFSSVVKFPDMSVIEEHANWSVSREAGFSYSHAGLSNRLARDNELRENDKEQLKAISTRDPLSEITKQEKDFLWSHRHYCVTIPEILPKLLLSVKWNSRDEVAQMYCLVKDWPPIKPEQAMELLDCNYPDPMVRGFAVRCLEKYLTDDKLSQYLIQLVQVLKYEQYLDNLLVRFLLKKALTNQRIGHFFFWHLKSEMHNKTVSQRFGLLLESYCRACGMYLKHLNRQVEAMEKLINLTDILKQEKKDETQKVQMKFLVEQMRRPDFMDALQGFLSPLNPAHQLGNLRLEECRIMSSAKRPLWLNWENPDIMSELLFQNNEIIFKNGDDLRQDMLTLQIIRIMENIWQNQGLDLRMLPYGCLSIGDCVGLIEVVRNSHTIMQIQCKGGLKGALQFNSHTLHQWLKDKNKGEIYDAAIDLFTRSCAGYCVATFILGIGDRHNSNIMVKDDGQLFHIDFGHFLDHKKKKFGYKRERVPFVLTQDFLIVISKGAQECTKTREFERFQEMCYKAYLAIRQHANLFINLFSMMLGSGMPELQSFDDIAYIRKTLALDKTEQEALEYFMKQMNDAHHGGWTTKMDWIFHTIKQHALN

[15] = molecular target: T15, MARK4 (Homo sapiens, UniProt Q96L34)
T15 construct: purchased Eurofins DiscoverX KINOMEscan
T15 sequence (Q96L34 1-752): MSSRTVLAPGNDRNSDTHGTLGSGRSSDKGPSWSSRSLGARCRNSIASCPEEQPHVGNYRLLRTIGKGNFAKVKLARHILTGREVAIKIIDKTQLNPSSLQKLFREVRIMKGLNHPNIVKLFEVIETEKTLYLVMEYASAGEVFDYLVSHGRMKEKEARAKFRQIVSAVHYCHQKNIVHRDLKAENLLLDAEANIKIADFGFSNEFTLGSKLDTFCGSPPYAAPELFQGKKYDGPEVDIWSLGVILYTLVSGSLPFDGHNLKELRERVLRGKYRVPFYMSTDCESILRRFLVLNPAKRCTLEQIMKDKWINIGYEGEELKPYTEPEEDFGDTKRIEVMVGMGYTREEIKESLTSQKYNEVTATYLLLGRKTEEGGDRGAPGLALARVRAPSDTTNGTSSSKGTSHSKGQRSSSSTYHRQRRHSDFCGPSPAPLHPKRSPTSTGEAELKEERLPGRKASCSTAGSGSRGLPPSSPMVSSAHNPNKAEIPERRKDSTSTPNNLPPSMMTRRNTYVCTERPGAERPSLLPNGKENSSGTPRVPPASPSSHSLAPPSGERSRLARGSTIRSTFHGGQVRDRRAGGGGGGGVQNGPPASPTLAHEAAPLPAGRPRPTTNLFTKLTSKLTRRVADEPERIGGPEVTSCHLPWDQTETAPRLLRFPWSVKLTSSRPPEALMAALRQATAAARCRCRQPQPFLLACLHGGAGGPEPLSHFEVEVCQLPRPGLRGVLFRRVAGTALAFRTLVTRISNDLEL

T1 sequence (P32298 whole entry): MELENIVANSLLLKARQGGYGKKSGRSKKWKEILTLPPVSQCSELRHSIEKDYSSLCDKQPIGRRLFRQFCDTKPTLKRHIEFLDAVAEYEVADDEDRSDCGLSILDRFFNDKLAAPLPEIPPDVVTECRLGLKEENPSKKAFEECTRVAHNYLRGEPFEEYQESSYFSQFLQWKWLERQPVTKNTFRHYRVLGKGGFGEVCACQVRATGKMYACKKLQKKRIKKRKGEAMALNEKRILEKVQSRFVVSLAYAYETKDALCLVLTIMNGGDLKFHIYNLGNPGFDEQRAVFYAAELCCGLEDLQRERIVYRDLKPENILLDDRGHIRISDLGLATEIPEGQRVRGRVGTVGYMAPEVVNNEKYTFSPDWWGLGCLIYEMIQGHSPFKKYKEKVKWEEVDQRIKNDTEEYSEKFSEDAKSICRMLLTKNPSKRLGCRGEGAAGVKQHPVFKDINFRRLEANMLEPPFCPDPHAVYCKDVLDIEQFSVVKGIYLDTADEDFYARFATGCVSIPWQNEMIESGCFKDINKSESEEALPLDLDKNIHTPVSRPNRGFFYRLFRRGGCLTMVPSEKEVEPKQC

| Structure (SMILES) | remaining binding at 1 µM [1] [%] | remaining binding at 1 µM [2] [%] | remaining binding at 1 µM [3] [%] | remaining binding at 1 µM [4] [%] | remaining binding at 1 µM [5] [%] | remaining binding at 1 µM [6] [%] | remaining binding at 1 µM [7] [%] | remaining binding at 1 µM [8] [%] | remaining binding at 1 µM [9] [%] | remaining binding at 1 µM [10] [%] | remaining binding at 1 µM [11] [%] | remaining binding at 1 µM [12] [%] | remaining binding at 1 µM [13] [%] | remaining binding at 1 µM [14] [%] | remaining binding at 1 µM [15] [%] |
| --- | --- | --- | --- | --- | --- | --- | --- | --- | --- | --- | --- | --- | --- | --- | --- |
| Clc1cc(NCC2CC2)c2ncc(-c3ccc4[nH]ncc4c3)n2n1 [compound 2, 6-Chloro-N-(cyclopropylmethyl)-3-(1H-indazol-5-yl)imidazo[1,2-b]pyridazin-8-amine] | 42 | 78 | 97 | 91 | 100 | 100 | 94 | 100 | 87 | 100 | 94 | 60 | 68 | 75 | 92 |
| O=C(CN1CCOCC1)N[C@H]1CC[C@H](Nc2cc(Cl)nn3c(-c4ccc5[nH]ncc5c4)cnc23)CC1 [compound 26] | 79 | 88 | 100 | 65 | 71 | 98 | 94 | 97 | 100 | 56 | 85 | 6.2 | 100 | 80 | 95 |
| CN1CCC(CNc2cc(Cl)nn3c(-c4cc5nc(Nc6ccccc6)[nH]c5cc4F)cnc23)CC1 [compound 31, 6-Chloro-3-(6-fluoro-2-(phenylamino)-1H-benzo[d]imidazol-5-yl)-N-((1-methylpiperidin-4-yl)methyl)imidazo[1,2-b]pyridazin-8-amine] | 100 | 100 | 92 | 93 | 91 | 80 | 99 | 98 | 100 | 92 | 100 | 73 | 94 | 68 | 93 |
